The experiment has as its target T1, telomerase (Homo sapiens, UniProt O14746).
T1 construct: placing cells, tissues, or preferably a cellular extract or other preparation containing telomerase in contact with; endogenous in cells
The experiment can be described thus: telomerase inhibition, IC50 (Table 1). Type of experiment: biochemical. The source says: One method used to identify compounds of the invention that inhibit telomerase activity involves placing cells, tissues, or preferably a cellular extract or other preparation containing telomerase in contact with several known concentrations of a test compound in a buffer compatible with telomerase activity. […] Other methods for determining the inhibitory concentration of a compound of the invention against telomerase can be employed as will be apparent to those of skill in the art based on the disclosure herein.
With the above-described methods, IC50 values for several of the compounds of the present invention were determined. The values reported in Table 1 below are only approximate values; more exact IC50 values can be obtained by repetitive testing.

Setting [1] is: Table 1, approximate values only, read-out: IC50.
Where [2] appears, read: summary of Table 1, approximate IC50 values, read-out: IC50 (bound stated in text).

Molecules are shown by their SMILES. Entries after “also recorded” stand apart in the source; their conditions may differ. Where two headings read alike, the source gives them in different places.

T1 sequence (O14746 whole entry): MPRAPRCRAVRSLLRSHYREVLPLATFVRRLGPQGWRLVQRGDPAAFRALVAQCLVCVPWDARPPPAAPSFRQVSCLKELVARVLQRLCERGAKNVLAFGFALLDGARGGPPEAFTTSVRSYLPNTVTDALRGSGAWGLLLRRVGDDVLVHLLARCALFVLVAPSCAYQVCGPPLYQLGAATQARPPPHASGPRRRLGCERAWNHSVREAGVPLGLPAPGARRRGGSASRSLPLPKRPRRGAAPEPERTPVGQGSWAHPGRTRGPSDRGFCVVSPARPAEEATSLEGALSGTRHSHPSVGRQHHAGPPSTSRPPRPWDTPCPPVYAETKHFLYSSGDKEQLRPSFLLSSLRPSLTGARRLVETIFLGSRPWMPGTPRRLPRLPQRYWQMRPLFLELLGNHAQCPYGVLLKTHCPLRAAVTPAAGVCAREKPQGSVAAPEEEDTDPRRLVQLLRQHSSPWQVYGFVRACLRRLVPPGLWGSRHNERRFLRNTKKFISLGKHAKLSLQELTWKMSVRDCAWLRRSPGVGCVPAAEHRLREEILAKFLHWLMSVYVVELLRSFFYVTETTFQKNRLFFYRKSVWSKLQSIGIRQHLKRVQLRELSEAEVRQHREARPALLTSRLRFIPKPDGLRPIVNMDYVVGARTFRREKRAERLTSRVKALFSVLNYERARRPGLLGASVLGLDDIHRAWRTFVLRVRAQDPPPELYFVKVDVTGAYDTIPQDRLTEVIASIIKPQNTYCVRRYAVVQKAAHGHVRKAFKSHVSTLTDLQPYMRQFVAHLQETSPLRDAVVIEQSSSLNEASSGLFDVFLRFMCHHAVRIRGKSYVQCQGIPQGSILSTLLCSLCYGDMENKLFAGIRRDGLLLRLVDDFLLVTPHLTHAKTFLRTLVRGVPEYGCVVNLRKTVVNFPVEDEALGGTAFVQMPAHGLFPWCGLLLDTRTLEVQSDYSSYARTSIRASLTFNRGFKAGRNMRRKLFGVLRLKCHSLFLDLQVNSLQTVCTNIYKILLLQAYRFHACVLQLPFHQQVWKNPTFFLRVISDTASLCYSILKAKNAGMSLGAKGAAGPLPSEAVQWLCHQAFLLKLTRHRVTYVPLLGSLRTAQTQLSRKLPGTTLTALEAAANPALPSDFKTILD
T1 sequence (O60832 whole entry partner): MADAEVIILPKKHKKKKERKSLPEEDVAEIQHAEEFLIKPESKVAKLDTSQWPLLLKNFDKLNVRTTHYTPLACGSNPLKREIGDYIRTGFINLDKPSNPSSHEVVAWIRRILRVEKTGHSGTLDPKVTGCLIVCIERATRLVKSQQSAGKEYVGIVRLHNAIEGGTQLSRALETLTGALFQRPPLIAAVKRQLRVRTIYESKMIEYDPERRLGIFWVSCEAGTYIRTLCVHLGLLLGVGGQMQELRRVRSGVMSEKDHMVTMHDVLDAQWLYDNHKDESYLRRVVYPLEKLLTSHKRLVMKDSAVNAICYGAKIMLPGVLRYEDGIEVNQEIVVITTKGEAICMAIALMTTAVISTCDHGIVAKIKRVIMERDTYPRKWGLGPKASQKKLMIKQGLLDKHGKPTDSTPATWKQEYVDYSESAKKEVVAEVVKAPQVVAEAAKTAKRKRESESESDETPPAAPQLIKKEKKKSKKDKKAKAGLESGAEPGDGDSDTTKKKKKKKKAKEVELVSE
T1 sequence (Q9NPE3 whole entry partner): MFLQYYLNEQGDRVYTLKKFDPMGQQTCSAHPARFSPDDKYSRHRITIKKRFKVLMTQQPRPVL
T1 sequence (Q9NX24 whole entry partner): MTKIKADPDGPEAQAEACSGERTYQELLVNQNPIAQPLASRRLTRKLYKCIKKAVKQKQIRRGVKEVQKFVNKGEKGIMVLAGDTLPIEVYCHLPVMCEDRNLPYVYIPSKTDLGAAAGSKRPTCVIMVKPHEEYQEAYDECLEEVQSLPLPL
T1 sequence (Q9NY12 whole entry partner): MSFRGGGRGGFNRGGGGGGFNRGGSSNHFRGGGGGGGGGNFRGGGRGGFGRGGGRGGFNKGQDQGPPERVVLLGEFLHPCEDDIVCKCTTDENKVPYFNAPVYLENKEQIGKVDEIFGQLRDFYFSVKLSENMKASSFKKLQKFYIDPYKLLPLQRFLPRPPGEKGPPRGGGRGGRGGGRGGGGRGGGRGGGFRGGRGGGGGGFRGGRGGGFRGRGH

Consider `Nc1c(C(=O)c2ccc(Cl)c(Cl)c2)sc2nc(C=O)ccc12` [Compound VIII], for which the “anti-telomerase activity (in words)” value is listed as “particularly good anti-telomerase activity; also recorded: strong telomerase inhibitors”. Further, under setting [1], the half-maximal inhibitory concentration (IC50) was found to be 28 µM. Further, the IC50 under setting [2] is below 30 µM.

On to `Nc1c(C(=O)c2ccc(Cl)c(Cl)c2)oc2nc(C=O)ccc12` [Compound XIV], for which the half-maximal inhibitory concentration (IC50) under setting [1] turned out to be 31 µM.

Consider `Nc1c(C(=O)c2ccc(Cl)cc2Cl)sc2nc(C=NC3C4CC5CC(C4)CC3C5)ccc12` (centres unmarked) [Compound IV], for which the IC50 under setting [1] came to 26 µM.

Turning to `Nc1c(C(=O)c2ccc(Br)cc2)sc2nc(C=O)ccc12` [Compound VII], the “anti-telomerase activity (in words)” value was “particularly good anti-telomerase activity”. Further, under setting [1], the IC50 worked out at 48 µM.

Consider `Nc1c(C(=O)c2ccc(Cl)c(Cl)c2)sc2nc(C=NC3C4CC5CC(C4)CC3C5)ccc12` (centres unmarked) [Compound V], for which the “anti-telomerase activity (in words)” value is given as “strong telomerase inhibitors”. For the same molecule, the IC50 under setting [1] was 30 µM. In addition, under setting [2], the IC50 is below 30 µM.

As to `CC(C)(C)c1ccc(-c2noc(-c3sc4nc(C=O)ccc4c3N)n2)cc1` [Compound X], the IC50 under setting [1] was found to be 42 µM.

Take `Nc1c(C(=O)c2ccc(Cl)c(Cl)c2)sc2nc(C=NNc3ccccc3)ccc12` [Compound XI]: the “anti-telomerase activity (in words)” value was “good anti-telomerase activity”. Further, the IC50 under setting [1] stood at 42 µM.

Regarding `Cc1ccc(NN=Cc2ccc3c(N)c(C(=O)c4ccc(Br)cc4)sc3n2)cc1` [Compound XIII], the “anti-telomerase activity (in words)” value is “good anti-telomerase activity”. Under setting [1], the IC50 is 18 µM.

Regarding `Nc1c(C(=O)c2ccc(Cl)c(Cl)c2)sc2nc(C=NNc3ccc(Cl)cc3)ccc12` [Compound XII], the “anti-telomerase activity (in words)” value is recorded as “good anti-telomerase activity; also recorded: strong telomerase inhibitors”. The IC50 under setting [1] was determined as 21 µM. Under setting [2], the IC50 is below 30 µM.

Take `Nc1c(-c2ncc(C(F)(F)F)cc2Cl)sc2nc(C=O)ccc12` [Compound IX]: the “anti-telomerase activity (in words)” value is recorded as “strong telomerase inhibitors”. In addition, the IC50 under setting [1] turned out to be 24 µM. Under setting [2], the IC50 was below 30 µM.

With `Nc1c(C(=O)c2ccc(Br)cc2)sc2nc(C=NC3C4CC5CC(C4)CC3C5)ccc12` (centres unmarked) [Compound III], the “anti-telomerase activity (in words)” value was “strong telomerase inhibitors”. Also, the IC50 under setting [1] was determined as 4 µM. The IC50 under setting [2] was below 30 µM.

On to `Cc1cc(N=Cc2ccc3c(N)c(-c4ccc(Cl)c(Cl)c4)oc3n2)n[nH]1` [Compound XV], for which the “anti-telomerase activity (in words)” value was “good anti-telomerase activity”. Moreover, the IC50 under setting [1] was determined as 49 µM.

Regarding `Nc1c(C(=O)c2ccc(Cl)cc2Cl)sc2nc(C=O)ccc12` [Compound VI], the “anti-telomerase activity (in words)” value is given as “particularly good anti-telomerase activity; also recorded: strong telomerase inhibitors”. Besides, the IC50 under setting [1] turned out to be 29 µM. Moreover, the IC50 under setting [2] was below 30 µM.

The term IC50 denotes the concentration that inhibits the measured activity by half.

The values above are taken from patent US5656638A, “Telomerase inhibitors” (Geron Corporation, priority 1995, dated 1997).
